Counter-ions that a name gives are not always drawn.
These molecules were tested against TrkA (Homo sapiens (Human), UniProt P04629) (assay: TrkA Omnia Assay). Conditions: averaged IC50; 20 nM enzyme, 500 μM ATP, 10 μM peptide substrate.
Assay type: biochemical
Summary of the method: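 Continuous fluorescent kinase read-out (ex 360 nm, em 485 nm) over 70 min, with initial rates fitted to 4- or 5-parameter logistic curves for IC50. Final conditions: 500 μM ATP, 10 μM Omnia Tyr Peptide #4, 20 nM TrkA, MOPS pH 7.5 buffer with MgCl2 and Triton X-100; enzyme and compound preincubated 10 min at ambient temperature.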

Sequence of TrkA (P04629 33-796): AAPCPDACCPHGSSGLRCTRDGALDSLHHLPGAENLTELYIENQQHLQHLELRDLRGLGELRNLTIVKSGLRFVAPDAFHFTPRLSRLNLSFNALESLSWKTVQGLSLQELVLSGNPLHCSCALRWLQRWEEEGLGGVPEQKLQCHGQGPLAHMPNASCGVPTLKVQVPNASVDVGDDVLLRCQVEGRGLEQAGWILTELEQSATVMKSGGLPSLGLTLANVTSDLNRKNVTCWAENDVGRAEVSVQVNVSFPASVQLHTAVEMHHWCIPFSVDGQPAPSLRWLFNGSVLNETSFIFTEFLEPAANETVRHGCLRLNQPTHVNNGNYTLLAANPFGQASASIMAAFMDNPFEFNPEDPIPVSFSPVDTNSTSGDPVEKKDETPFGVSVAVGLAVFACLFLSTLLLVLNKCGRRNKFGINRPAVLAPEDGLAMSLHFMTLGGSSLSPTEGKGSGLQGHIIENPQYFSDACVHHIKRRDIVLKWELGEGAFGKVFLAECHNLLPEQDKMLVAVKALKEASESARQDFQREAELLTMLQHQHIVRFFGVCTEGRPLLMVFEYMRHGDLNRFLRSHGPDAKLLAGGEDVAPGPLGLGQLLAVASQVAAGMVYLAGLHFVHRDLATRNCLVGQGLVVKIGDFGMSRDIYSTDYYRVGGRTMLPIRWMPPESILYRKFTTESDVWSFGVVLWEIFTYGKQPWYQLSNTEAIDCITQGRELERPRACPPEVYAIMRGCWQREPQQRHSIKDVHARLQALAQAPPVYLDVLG

| Structure (SMILES) | IC50 |
| --- | --- |
| COCCN1C[C@@H](NC(=O)Nc2c(C)c(-c3ccc(=O)n(C(C)C)c3)nn2-c2ccccc2)[C@H](c2ccc(F)c(F)c2)C1 [Example 535, 1-((3S,4R)-4-(3,4-difluorophenyl)-1-(2-methoxyethyl)pyrrolidin-3-yl)-3-(3-(1-isopropyl-6-oxo-1,6-dihydropyridin-3-yl)-4-methyl-1-phenyl-1H-pyrazol-5-yl)urea] | < 0.1 µM |
| COCCN1C[C@@H](NC(=O)Nc2c(C)c(-c3ccc(=O)n(C(C)C)c3)nn2-c2ccccc2)[C@H](c2ccc(F)cc2)C1 [Example 536, 1-((3S,4R)-4-(4-fluorophenyl)-1-(2-methoxyethyl)pyrrolidin-3-yl)-3-(3-(1-isopropyl-6-oxo-1,6-dihydropyridin-3-yl)-4-methyl-1-phenyl-1H-pyrazol-5-yl)urea] | < 0.1 µM |
| COCCN1C[C@@H](NC(=O)Nc2c(C)c(OC[C@H](C)O)nn2-c2ccccc2)[C@H](c2cc(F)cc(F)c2)C1 [Example 537, 1-((3S,4R)-4-(3,5-difluorophenyl)-1-(2-methoxyethyl)pyrrolidin-3-yl)-3-(3-((S)-2-hydroxypropoxy)-4-methyl-1-phenyl-1H-pyrazol-5-yl)urea dihydrochloride] | < 0.1 µM |
| COCCN1C[C@@H](NC(=O)Nc2c(C)c(OCCN3CCNCC3)nn2-c2ccccc2)[C@H](c2ccc(F)c(F)c2)C1 [Example 538, 1-((3S,4R)-4-(3,5-difluorophenyvl)-1-(2-methoxyethyl)pyrrolidin-3-yl)-3-(4-methyl-1-phenyl-3-(2-(piperazin-1-yl)ethoxy)-1H-pyrazol-5-yl)urea trihydrochloride] | < 0.1 µM |
| COCCN1C[C@@H](NC(=O)Nc2c(Cl)c(OCc3ccccc3)nn2C)[C@H](c2ccc(F)c(F)c2)C1 [Example 539, 1-(3-(benzyloxy)-4-chloro-1-methyl-1H-pyrazol-5-yl)-3-((3S,4R)-4-(3,4-difluorophenyl)-1-(2-methoxyethyl)pyrrolidin-3-yl)urea] | 0.1 to 1 µM |
| COCCN1C[C@@H](NC(=O)Nc2c(C)c(OCC(=O)O)nn2-c2ccccc2)[C@H](c2ccc(F)c(F)c2)C1 [Example 540, 2-((5-(3-((3S,4R)-4-(3,4-difluorophenyl)-1-(2-methoxyethyl)pyrrolidin-3-yl)ureido)-4-methyl-1-phenyl-1H-pyrazol-3-yl)oxy)acetic acid] | < 0.1 µM |
| CCNC(=O)COc1nn(-c2ccccc2)c(NC(=O)N[C@@H]2CN(CCOC)C[C@H]2c2ccc(F)c(F)c2)c1C [Example 541, 2-((5-(3-((3S,4R)-4-(3,4-difluorophenyl)-1-(2-methoxyethyl)pyrrolidin-3-yl)ureido)-4-methyl-1-phenyl-1H-pyrazol-3-yl)oxy)-N-ethylacetamide] | < 0.1 µM |
| CCc1c(OCC(C)(C)O)nn(-c2ccccc2)c1NC(=O)N[C@@H]1CN(CCOC)C[C@H]1c1ccc(F)c(F)c1 [Example 542, 1-((3S,4R)-4-(3,4-difluorophenyvl)-1-(2-methoxyethyl)pyrrolidin-3-yl)-3-(4-ethyl-3-(2-hydroxy-2-methylpropoxy)-1-phenyl-1H-pyrazol-5-yl)urea] | < 0.1 µM |
| COCCN1C[C@@H](NC(=O)Nc2c(C)c(OCCN)nn2-c2ccccc2)[C@H](c2ccc(F)c(F)c2)C1 [Example 543, 1-(3-(2-aminoethoxy)-4-methyl-1-phenyl-1H-pyrazol-5-yl)-3-((3S,4R)-4-(3,4-difluorophenyl)-1-(2-methoxyethyl)pyrrolidin-3-yl)urea] | < 0.1 µM |
| COCCN1C[C@@H](NC(=O)Nc2c(C)c(OCCNS(C)(=O)=O)nn2-c2ccccc2)[C@H](c2ccc(F)c(F)c2)C1 [Example 544, N-(2-((5-(3-((3S,4R)-4-(3,4-difluorophenyl)-1-(2-methoxyethyl)pyrrolidin-3-yl)ureido)-4-methyl-1-phenyl-1H-pyrazol-3-yl)oxy)ethyl)methanesulfonamide] | < 0.1 µM |
| COCCN1C[C@@H](NC(=O)Nc2c(C)c(OCCNC(C)=O)nn2-c2ccccc2)[C@H](c2ccc(F)c(F)c2)C1 [Example 545, N-(2-((5-(3-((3S,4R)-4-(3,4-difluorophenyl)-1-(2-methoxyethyl)pyrrolidin-3-yl)ureido)-4-methyl-1-phenyl-1H-pyrazol-3-yl)oxy)ethyl)acetamide] | < 0.1 µM |
| COCCN1C[C@@H](NC(=O)Nc2c(C)c(OCCN3CCN(C(C)=O)CC3)nn2-c2ccccc2)[C@H](c2ccc(F)c(F)c2)C1 [Example 546, 1-(3-(2-(4-acetylpiperazin-1-yl)ethoxy)-4-methyl-1-phenyl-1H-pyrazol-5-yl)-3-((3S,4R)-4-(3,4-difluorophenyl)-1-(2-methoxyethyl)pyrrolidin-3-yl)urea] | < 0.1 µM |

The next lines start with the values.

| IC50 | Structure (SMILES) |
| --- | --- |
| < 0.1 µM | COCCN1C[C@@H](NC(=O)Nc2c(C)c(OCC(N)=O)nn2-c2ccccc2)[C@H](c2ccc(F)c(F)c2)C1 [Example 547, 2-((5-(3-((3S,4R)-4-(3,4-difluorophenyl)-1-(2-methoxyethyl)pyrrolidin-3-yl)ureido)-4-methyl-1-phenyl-1H-pyrazol-3-yl)oxy)acetamide] |
| 0.1 to 1 µM | CCOc1nn(-c2ccccc2)c(NC(=O)N[C@@H]2CN(CCOC)C[C@H]2c2ccc(F)c(F)c2)c1NC(=O)C(F)(F)F [Example 548, N-(5-(3-((3S,4R)-4-(3,4-difluorophenyl)-1-(2-methoxyethyl)pyrrolidin-3-yl)ureido)-3-ethoxy-1-phenyl-1H-pyrazol-4-yl)-2,2,2-trifluoroacetamide] |
| < 0.1 µM | CCOc1nn(-c2ccccc2)c(NC(=O)N[C@@H]2CN(CCOC)C[C@H]2c2ccc(F)c(F)c2)c1N [Example 549, 1-(4-amino-3-ethoxy-1-phenyl-1H-pyrazol-5-yl)-3-((3S,4R)-4-(3,4-difluorophenyl)-1-(2-methoxyethyl)pyrrolidin-3-yl)urea] |
| < 0.1 µM | CCOc1nn(-c2ccccc2)c(NC(=O)N[C@@H]2CN(CCOC)C[C@H]2c2ccc(F)c(F)c2)c1CCO [Example 550, 1-((3S,4R)-4-(3,4-difluorophenyvl)-1-(2-methoxyethyl)pyrrolidin-3-yl)-3-(3-ethoxy-4-(2-hydroxyethyl)-1-phenyl-1H-pyrazol-5-yl)urea] |
| < 0.1 µM | COCCN1C[C@@H](NC(=O)Nc2c(C)c(OCCN3CCN(C)CC3)nn2-c2ccccc2)[C@H](c2ccc(F)c(F)c2)C1 [Example 551, 1-((3S,4R)-4-(3,4-difluorophenyl)-1-(2-methoxyethyl)pyrrolidin-3-yl)-3-(4-methyl-3-(2-(4-methylpiperazin-1-yl)ethoxy)-1-phenyl-1H-pyrazol-5-yl)urea trihydrochloride] |
| < 0.1 µM | COCCN1C[C@@H](NC(=O)Nc2c(C)c(OCC(=O)N3CCOCC3)nn2-c2ccccc2)[C@H](c2ccc(F)c(F)c2)C1 [Example 552, 1-((3S,4R)-4-(3,4-difluorophenyvl)-1-(2-methoxyethyl)pyrrolidin-3-yl)-3-(4-methyl-3-(2-morpholino-2-oxoethoxy)-1-phenyl-1H-pyrazol-5-yl)urea] |
| 0.1 to 1 µM | COCCN1C[C@@H](NC(=O)Nc2c(Br)c(C(=O)O)nn2-c2ccccc2)[C@H](c2ccc(F)c(F)c2)C1 [Example 553, 4-bromo-5-(3-((3S,4R)-4-(3,4-difluorophenyl)-1-(2-methoxyethyl)pyrrolidin-3-yl)ureido)-1-phenyl-1H-pyrazole-3-carboxylic acid] |
| < 0.1 µM | CNC(=O)c1nn(-c2ccccc2)c(NC(=O)N[C@@H]2CN(CCOC)C[C@H]2c2ccc(F)c(F)c2)c1Br [Example 554, 4-bromo-5-(3-((3S,4R)-4-(3,4-difluorophenyl)-1-(2-methoxyethyl)pyrrolidin-3-yl)ureido)-N-methyl-1-phenyl-1H-pyrazole-3-carboxamide] |
| < 0.1 µM | COCCN1C[C@@H](NC(=O)Nc2c(Br)c(C(=O)NOC)nn2-c2ccccc2)[C@H](c2ccc(F)c(F)c2)C1 [Example 555, 4-bromo-5-(3-((3S,4R)-4-(3,4-difluorophenyl)-1-(2-methoxyethyl)pyrrolidin-3-yl)ureido)-N-methoxy-1-phenyl-1H-pyrazole-3-carboxamide] |
| < 0.1 µM | COCCN1C[C@@H](NC(=O)Nc2c(Cl)c(-c3cnn(CCOC)c3)nn2-c2ccccc2)[C@H](c2ccc(F)c(F)c2)C1 [Example 556, 1-(4-chloro-1′-(2-methoxyethyl)-1-phenyl-1H, 1′H-[3,4′-bipyrazol]-5-yl)-3-((3S,4R)-4-(3,4-difluorophenyl)-1-(2-methoxyethyl)pyrrolidin-3-yl)urea] |
| < 0.1 µM | COCCN1C[C@@H](NC(=O)Nc2c(C)c(OC[C@@H](O)CO)nn2-c2ccccc2)[C@H](c2cc(F)cc(F)c2)C1 [Example 557, 1-((3S,4R)-4-(3,5-difluorophenyl)-1-(2-methoxyethyl)pyrrolidin-3-yl)-3-(3-((S)-2,3-dihydroxvpropoxy)-4-methyl-1-phenyl-1H-pyrazol-5-yl)urea] |
| < 0.1 µM | COCCN1C[C@@H](NC(=O)Nc2c(C)c(OC[C@H](O)CO)nn2-c2ccccc2)[C@H](c2cc(F)cc(F)c2)C1 [Example 558, 1-((3S,4R)-4-(3,5-difluorophenyl)-1-(2-methoxyethyl)pyrrolidin-3-yl)-3-(3-((R)-2,3-dihydroxypropoxy)-4-methyl-1-phenyl-1H-pyrazol-5-yl)urea] |
| < 0.1 µM | COCCN1C[C@@H](NC(=O)Nc2c(C)c(OC[C@H](O)CO)nn2-c2ccccc2)[C@H](c2cc(F)c(F)c(F)c2)C1 [Example 559, 1-(3-((R)-2,3-dihydroxvpropoxy)-4-methyl-1-phenyl-1H-pyrazol-5-yl)-3-((3S,4R)-1-(2-methoxyethyl)-4-(3,4,5-trifluorophenyl)pyrrolidin-3-yl)urea] |
| < 0.1 µM | COCCN1C[C@@H](NC(=O)Nc2c(C)c(OC[C@@H](O)CO)nn2-c2ccccc2)[C@H](c2cc(F)c(F)c(F)c2)C1 [Example 560, 1-(3-((S)-2,3-dihydroxvpropoxy)-4-methyl-1-phenyl-1H-pyrazol-5-yl)-3-((3S,4R)-1-(2-methoxyethyl)-4-(3,4,5-trifluorophenyl)pyrrolidin-3-yl)urea] |

Source: patent US10323022B2, “Pyrrolidinyl urea, pyrrolidinyl thiourea and pyrrolidinyl guanidine compounds as TrkA kinase inhibitors” (Array BioPharma Inc., priority 2011, dated 2019)
